Drawing on PubChem BioAssay (NCI), this text covers TGI for 14 compounds.

Some test systems named below: LOX IMVI melanoma; A549 NSCLC; IGROV1 ovarian; RXF 393 renal; HCT-15 colon; EKVX NSCLC; RPMI-8226 leukemia; OVCAR-4 ovarian; ACHN renal; SK-MEL-5 melanoma; DU-145 prostate.
What all share (assay): growth of human tumour cells (NCI), 48 h

Molecules are shown by their SMILES.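 96-well plates; 48 h exposure; 5 concentrations. Endpoints by linear interpolation between flanking doses. Not reached: highest tested concentration assigned. Definition used: TGI = concentration required for complete inhibition of growth.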 Bounds are passed on as bounds.

As to `COc1ccc2nc3c(c(NCCCN(C)C)c2c1)CCCC3`, the TGI amounted to 25.8 µM with LOX IMVI melanoma; 49.9 µM with A549 NSCLC; 47 µM in the experiment on IGROV1 ovarian; 29.5 µM in the experiment on RXF 393 renal; 33.9 µM in the experiment on HCT-15 colon; 40.5 µM with EKVX NSCLC. Moreover, the TGI in the experiment with RPMI-8226 leukemia is 27.2 µM; with OVCAR-4 ovarian, 18.5 µM; in the experiment with ACHN renal, 55.3 µM; with SK-MEL-5 melanoma it was 29.2 µM.
Consider `O=c1c2ccccc2nc(-c2ccccc2)n1NC(=S)Nc1ccc(Cl)cc1`, for which the TGI in the experiment with LOX IMVI melanoma, with A549 NSCLC, in the experiment with IGROV1 ovarian, with RXF 393 renal, in the experiment on HCT-15 colon and in the experiment with RPMI-8226 leukemia was > 100 µM each time. Moreover, the TGI in the experiment with OVCAR-4 ovarian, with ACHN renal and in the experiment on SK-MEL-5 melanoma was > 100 µM throughout.
In the case of `CN(C)CCNC(=O)c1cccc2cc3cc(O)ccc3nc12`, the TGI worked out at 2.72 µM in the experiment with LOX IMVI melanoma; 3.47 µM with A549 NSCLC; 4.43 µM in the experiment with IGROV1 ovarian; 10 µM with RXF 393 renal; 6.53 µM in the experiment with HCT-15 colon; 5.24 µM in the experiment with EKVX NSCLC. The TGI stood at 5.46 µM in the experiment on RPMI-8226 leukemia, 6.58 µM with OVCAR-4 ovarian and 2.48 µM in the experiment on SK-MEL-5 melanoma.
Consider `Cc1ccc(N(O)C(C)(C)C)cc1`, for which the TGI in the experiment on LOX IMVI melanoma, in the experiment with A549 NSCLC, with IGROV1 ovarian, with RXF 393 renal, in the experiment on HCT-15 colon and with EKVX NSCLC was > 100 µM in each case. The TGI with RPMI-8226 leukemia, in the experiment on OVCAR-4 ovarian and in the experiment with SK-MEL-5 melanoma was > 100 µM throughout.
In the case of `Cc1cc(C)nc(/C(=N\NC(N)=O)C(=O)Nc2nc3ccc(C)cc3s2)c1`, the TGI was > 70.5 µM in the experiment with LOX IMVI melanoma; > 100 µM in the experiment on A549 NSCLC; > 100 µM with IGROV1 ovarian; > 100 µM in the experiment with RXF 393 renal; > 100 µM in the experiment with HCT-15 colon; > 100 µM in the experiment with EKVX NSCLC. Moreover, the TGI in the experiment on RPMI-8226 leukemia is > 69.6 µM; in the experiment on OVCAR-4 ovarian, > 100 µM; in the experiment with ACHN renal, > 100 µM; in the experiment with SK-MEL-5 melanoma it was > 100 µM.
For `C[S+](C)CC1OC(n2cnc3c(N)ncnc32)C(O)C1O` (stereo unspecified), the TGI in the experiment on LOX IMVI melanoma, in the experiment with A549 NSCLC, in the experiment with IGROV1 ovarian, in the experiment on RXF 393 renal, in the experiment on HCT-15 colon and in the experiment on EKVX NSCLC was > 225 µM throughout. The TGI with RPMI-8226 leukemia, with OVCAR-4 ovarian and with SK-MEL-5 melanoma was > 225 µM in each case.
As for `CC1(C)C2CCC3(OCCO3)C1C(O)C2` (stereo unspecified), the TGI in the experiment with LOX IMVI melanoma, in the experiment on A549 NSCLC, in the experiment on IGROV1 ovarian, in the experiment on RXF 393 renal, in the experiment on HCT-15 colon and in the experiment on EKVX NSCLC was > 100 µM each time. Further, the TGI with RPMI-8226 leukemia, in the experiment with OVCAR-4 ovarian, in the experiment with ACHN renal and with SK-MEL-5 melanoma was > 100 µM in each case.
Turning to `O=NN(CCF)C(=O)NC1CC2CCC1C2` (stereo unspecified), the TGI in the experiment with LOX IMVI melanoma, with A549 NSCLC, in the experiment with IGROV1 ovarian, in the experiment on RXF 393 renal, with HCT-15 colon and with EKVX NSCLC was > 100 µM throughout. Further, the TGI with RPMI-8226 leukemia is > 87.7 µM; in the experiment on OVCAR-4 ovarian it was > 100 µM; in the experiment on SK-MEL-5 melanoma, > 100 µM.
For `CCOC(=O)c1c(C)nc2c(c1-c1cn(-c3ccccc3)nc1-c1ccccc1)C(=O)c1ccccc1-2`, the TGI in the experiment on LOX IMVI melanoma, with DU-145 prostate, with A549 NSCLC, with IGROV1 ovarian, with RXF 393 renal and in the experiment with HCT-15 colon was > 100 µM in each case. Also, the TGI in the experiment with EKVX NSCLC, in the experiment on OVCAR-4 ovarian and in the experiment with SK-MEL-5 melanoma was > 100 µM in each case.
Consider `CCC(COC(=O)CC[C@@H](NC(=O)C(C)NC(=O)C(C)OC1C(O)C(CO)OC(OCc2ccccc2)C1NC(C)=O)C(N)=O)NC1c2ccccc2Nc2cccc([N+](=O)[O-])c21` (stereo partly specified), for which the TGI with LOX IMVI melanoma was > 100 µM; in the experiment on A549 NSCLC it was > 100 µM; with IGROV1 ovarian, > 100 µM; in the experiment on RXF 393 renal, 84.6 µM; in the experiment on HCT-15 colon, > 100 µM; in the experiment with EKVX NSCLC, > 100 µM. In addition, the TGI in the experiment on RPMI-8226 leukemia, with OVCAR-4 ovarian, in the experiment on ACHN renal and with SK-MEL-5 melanoma was > 100 µM each time.
For `COc1ccc2c(c1)OCCc1cn[nH]c1-2`, the TGI was > 100 µM in the experiment with LOX IMVI melanoma; > 100 µM in the experiment on A549 NSCLC; 56.1 µM with IGROV1 ovarian; > 100 µM with RXF 393 renal; > 100 µM with HCT-15 colon; 12.3 µM in the experiment with EKVX NSCLC. The TGI in the experiment on OVCAR-4 ovarian and in the experiment on SK-MEL-5 melanoma was > 100 µM in each case.
For the compound `COc1cccc(/C(Cl)=C(\C=O)c2cccc(OC)c2)c1`, the TGI is 20.3 µM in the experiment with LOX IMVI melanoma; 40.8 µM with A549 NSCLC; 47.8 µM with IGROV1 ovarian; 25.1 µM in the experiment on RXF 393 renal; 20.1 µM in the experiment with HCT-15 colon; 38.7 µM in the experiment with EKVX NSCLC. Moreover, the TGI came out at 45.1 µM in the experiment on RPMI-8226 leukemia, 55.3 µM in the experiment with OVCAR-4 ovarian, 25.8 µM in the experiment with ACHN renal and 23.8 µM with SK-MEL-5 melanoma.
Take `COc1ccc(C2OCCN2C)cc1` (stereo unspecified): the TGI with LOX IMVI melanoma, in the experiment on A549 NSCLC, with IGROV1 ovarian, in the experiment with RXF 393 renal, in the experiment with HCT-15 colon and in the experiment with EKVX NSCLC was > 100 µM throughout. In addition, the TGI with RPMI-8226 leukemia, in the experiment on OVCAR-4 ovarian, in the experiment on ACHN renal and with SK-MEL-5 melanoma was > 100 µM each time.
For `O=S(=O)(O)c1cccc2cccc(N=Nc3c(O)ccc4ccccc34)c12`, the TGI in the experiment with DU-145 prostate, in the experiment on A549 NSCLC, with IGROV1 ovarian, in the experiment on RXF 393 renal, with HCT-15 colon and with EKVX NSCLC was > 100 µM each time. Moreover, the TGI in the experiment on OVCAR-4 ovarian, in the experiment with ACHN renal and in the experiment with SK-MEL-5 melanoma was > 100 µM throughout.
